Assay results: patent US5866545A, “Substituted ketone derivatives as inhibitors of interleukin-1β converting enzyme” (Merck & Co., Inc., priority 1996, dated 1999)
Where two headings read alike, the source gives them in different places.

Biological target: T1, interleukin-1β converting enzyme (ICE) (Homo sapiens, UniProt P29466)
T1 sequence (P29466 120-297 limits assumed): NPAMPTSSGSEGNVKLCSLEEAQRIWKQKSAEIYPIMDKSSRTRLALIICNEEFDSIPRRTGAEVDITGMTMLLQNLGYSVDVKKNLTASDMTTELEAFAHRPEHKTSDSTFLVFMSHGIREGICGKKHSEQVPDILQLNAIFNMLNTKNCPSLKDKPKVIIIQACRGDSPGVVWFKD
T1 sequence (P29466 317-404 limits assumed): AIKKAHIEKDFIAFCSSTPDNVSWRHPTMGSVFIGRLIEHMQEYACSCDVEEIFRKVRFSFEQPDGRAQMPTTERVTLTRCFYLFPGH
Assay: Fluorometric assay of inhibition of ICE hydrolysis of peptide substrate Ac-Tyr-Val-Ala-Asp-AMC
Assay type: biochemical
Settings: for Ki: reversible inhibition; for kon: irreversible inhibition
Text: Inhibition of Interleukin-1β Converting Enzyme (ICE).
A fluorometric assay used to evaluate the inhibition of interleukin-1βconverting enzyme (ICE) hydrolysis of a peptide substrate (Ac-Tyr-Val-Ala-Asp-AMC) by the compounds described in Examples 1-15 has been described in detail (N. A. Thornberry et al., Nature 1992, 356, 768-774). Briefly, liberation of AMC (aminomethylcoumarin) from the substrate was monitored continuously in a spectrofluorometer using an excitation wavelength of 380 nm and an emission wavelength of 460 nm. Details for determining kinetic constants for reversible and irreversible inhibition are described (N. A. Thomberry et al., Biochemistry 1994, 33, 3934-3940).
Inhibition of Interleukin-1β Converting Enzyme (ICE) by Examples 1-14

Structure (SMILES): C=CCOC(=O)NC(CC(=O)O)C(=O)COc1ccccc1 (centres unmarked) [Example 1, N-Allyloxycarbonyl-3-amino-4-oxo-5-phenoxy-pentanoic acid]
- Ki: 3500 nM

Structure (SMILES): C=CCOC(=O)NC(CC(=O)O)C(=O)COc1cccc2ccccc12 (centres unmarked) [Example 2, N-Allyloxycarbonyl-3-amino-5-(1-naphthyloxy)-4-oxopentanoic acid]
- Ki: 9500 nM

Structure (SMILES): C=CCOC(=O)NC(CC(=O)O)C(=O)COc1ccc2ccccc2c1 (centres unmarked) [Example 3, N-Allyloxycarbonyl-3-amino-5-(2-naphthyloxy)-4-oxopentanoic acid]
- Ki: 5000 nM

Structure (SMILES): C=CCOC(=O)NC(CC(=O)O)C(=O)COc1cc2ccccc2cc1C(N)=O (centres unmarked) [Example 4, N-Allyloxycarbonyl-3-amino-5-(3-aminocarbonyl-2-naphthyloxy)-4-oxopentanoic acid]
- Ki: 300 nM

Structure (SMILES): C=CCOC(=O)NC(CC(=O)O)C(=O)COc1cc2ccccc2cc1C(=O)Nc1ccccc1 (centres unmarked) [Example 5, N-Allyloxycarbonyl-3-amino-5-(3-(N-phenyl)aminocarbonyl-2-naphthyloxy)-4-oxopentanoic acid]
- Ki: 500 nM

Structure (SMILES): C=CCOC(=O)NC(CC(=O)O)C(=O)COc1cc2ccccc2cc1C#N (centres unmarked) [Example 6, N-Allyloxycarbonyl-3-amino-5-(3-cyano-2-naphthyloxy)-4-oxopentanoic acid]
- kon (read-out: kon): 4500 M⁻¹ s⁻¹
- Ki: 620 nM

Structure (SMILES): C=CCOC(=O)NC(CC(=O)O)C(=O)COc1cc2ccccc2cc1CO (centres unmarked) [Example 7, N-Allyloxycarbonyl-3-amino-5-(3-hydroxymethyl-2-naphthyloxy)-4-oxopentanoic acid]
- Ki: 1200 nM

Structure (SMILES): C=CCOC(=O)NC(CC(=O)O)C(=O)COc1cc2ccccc2cc1C(=O)OC (centres unmarked) [Example 8, N-Allyloxycarbonyl-3-amino-5-(3-methoxycarbonyl-2-naphthyloxy)-4-oxopentanoic acid]
- Ki: 2600 nM

Structure (SMILES): C=CCOC(=O)NC(CC(=O)O)C(=O)COc1cc2ccccc2cc1C(=O)NCCO (centres unmarked) [Example 9, N-Allyloxycarbonyl-3-amino-5-(3-(2-hydroxyethyl-1-aminocarbonyl)-2-naphthyloxy)-4-oxopentanoic acid]
- kon: 1000 M⁻¹ s⁻¹
- Ki: 520 nM

Structure (SMILES): C=CCOC(=O)NC(CC(=O)O)C(=O)COc1cc2ccccc2cc1-n1ccnc1 (centres unmarked) [Example 10, N-Allyloxycarbonyl-3-amino-5-(3-imidazolyl-2-naphthyloxy)-4-oxopentanoicacid]
- kon: 12,000 M^-1 s^-1
- Ki: 90 nM

Structure (SMILES): CC(=O)N[C@@H](Cc1ccc(O)cc1)C(=O)N[C@H](C(=O)N[C@@H](C)C(=O)NC(CC(=O)O)C(=O)COc1ccccc1)C(C)C (some centres unmarked) [Example 11, N-(N-Acetyl-(L)-tyrosinyl-(L)-valinyl-(L)-alaninyl)-3-amino-5-phenoxy-4-oxopentanoic acid]
- Ki: 3 nM

Structure (SMILES): CC(C)[C@H](NC(=O)OCc1ccccc1)C(=O)N[C@@H](C)C(=O)NC(CC(=O)O)C(=O)COc1cc2ccccc2cc1C(N)=O.CCN(CC)CC (some centres unmarked) [Example 12, N-(N-Carbobenzyloxy-(L)-valinyl-(L)-alaninyl)-3-amino-5-(3-amino-carbonyl-naphthyl-2-oxy)-4-oxo-pentanoic acid, triethylamine salt]
- kon: 430,000 M^-1 s^-1

Structure (SMILES): CC(C)[C@H](NC(=O)OCc1ccccc1)C(=O)N1CCC[C@H]1C(=O)NC(CC(=O)O)C(=O)COc1cc2ccccc2cc1C(N)=O (some centres unmarked) [Example 13, N-(N-Carbobenzyloxy-(L)-valinyl-(L)-prolinyl)-3-amino-5-(3-amino-carbonyl-naphthyl-2-oxy)-4-oxo-petanoic acid]
- kon: 340,000 M^-1 s^-1

Structure (SMILES): NC(=O)c1cc2ccccc2cc1OCC(=O)C(CC(=O)O)NC(=O)c1cc2ccccc2[nH]1 (centres unmarked) [Example 14, N-(2-indoloyl)-3-amino-5-(3-aminocarbonyl-naphthyl-2-oxy)-4-oxo-pentanoic acid]
- kon: 390 M⁻¹ s⁻¹
